Assay results: ChEMBL document CHEMBL5352401, “Novel cudraisoflavone J derivatives as potent neuroprotective agents for the treatment of Parkinson's disease via the activation of Nrf2/HO-1 signaling” (Eur J Med Chem, 2022)
One block for each molecule: values may come before it. Calls of active or inactive are those of the source. The rule behind the calls is not given here.

Assays:
PC-12 [1] = assay: Neuroprotective activity in rat PC-12 cells assessed as upregulation of HO-1 expression measured for 6 hrs by immunoblotting analysis; assay type: functional, cell-based; conditions: dose 1-30 µM
[2] = molecular target: T1, Nuclear factor erythroid 2-related factor 2 (Rattus norvegicus) (UniProt O54968); assay: Induction of Nrf2 nuclear translocation in rat PC12 cells assessed as increase in phosphorylation of JNK pretreated with SP600125 for 2 hrs followed by compound addition at 10 uM for 2 to 3 hrs by Western blotting analysis; assay type: cell-based; conditions: PC-12, time 2-3 hrs
T1 sequence (whole entry): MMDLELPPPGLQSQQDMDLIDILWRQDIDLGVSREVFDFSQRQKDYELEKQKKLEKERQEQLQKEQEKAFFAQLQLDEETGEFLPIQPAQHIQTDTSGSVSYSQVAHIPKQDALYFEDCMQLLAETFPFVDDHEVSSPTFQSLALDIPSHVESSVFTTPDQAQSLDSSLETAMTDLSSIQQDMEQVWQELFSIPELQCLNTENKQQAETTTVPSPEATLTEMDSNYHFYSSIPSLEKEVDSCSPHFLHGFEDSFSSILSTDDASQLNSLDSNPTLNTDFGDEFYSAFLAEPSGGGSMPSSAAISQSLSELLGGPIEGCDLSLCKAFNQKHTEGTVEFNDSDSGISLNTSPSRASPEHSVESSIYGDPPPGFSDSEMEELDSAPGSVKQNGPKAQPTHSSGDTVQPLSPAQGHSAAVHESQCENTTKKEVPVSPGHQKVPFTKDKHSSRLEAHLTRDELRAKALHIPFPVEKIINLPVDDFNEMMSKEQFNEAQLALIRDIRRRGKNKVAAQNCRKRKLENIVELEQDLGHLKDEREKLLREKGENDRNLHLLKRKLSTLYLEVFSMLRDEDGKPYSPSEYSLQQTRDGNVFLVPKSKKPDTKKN

PC-12 [3] = assay: Cytotoxicity in rat PC-12 cells assessed as cell viability incubated for 24 hrs by MTT assay; assay type: functional, cell-based; conditions: PC-12, 24 h
[4] = molecular target: T1, Nuclear factor erythroid 2-related factor 2 (Rattus norvegicus); assay: Induction of Nrf2 nuclear translocation in rat PC12 cells assessed as increase in phosphorylation of AKT at 10 uM for 2 to 3 hrs by Western blotting analysis; assay type: cell-based; conditions: PC-12, filed as activator, time 2-3 hrs
PC-12 [5] = assay: Antiinflammatory activity in rotenone induced cytotoxicity in rat PC-12 cells assessed as reduction of ROS production pretreated at 10 to 30 uM for 4 hrs followed by rotenone addition treated for 6 hrs measured after 1 hr of H2-DCFDA addition by measuring fluorescence; assay type: functional, cell-based; conditions: dose 10-30 µM, time 11.0 hrs
PC-12 [6] = assay: Neuroprotective activity against 6-OHDA-induced cytotoxicity in rat PC-12 cells at 30 uM for 4 hrs followed by exposure to 6-OHDA measured after 24 hrs by MTT assay; assay type: functional, cell-based; conditions: time 28.0 hrs
[7] = molecular target: T1, Nuclear factor erythroid 2-related factor 2 (Rattus norvegicus); assay: Induction of Nrf2 nuclear translocation in rat PC12 cells assessed as increase in phosphorylation of ERK2 pretreated with U0126 for 2 hrs followed by compound addition at 10 uM for 2 to 3 hrs by Western blotting analysis; assay type: cell-based; conditions: PC-12, time 2-3 hrs
[8] = molecular target: T1, Nuclear factor erythroid 2-related factor 2 (Rattus norvegicus); assay: Induction of Nrf2 nuclear translocation in rat PC12 cells assessed as increase in phosphorylation of ERK1 pretreated with U0126 for 2 hrs followed by compound addition at 10 uM for 2 to 3 hrs by Western blotting analysis; assay type: cell-based; conditions: PC-12, time 2-3 hrs
[9] = Neurotoxicity in rotenone induced at rat PC-12 cells assessed as cell viability at 30 uM pretreated for 4 hrs followed by rotenone addition measured after 24 hrs by MTT assay (reference value: 53.4 +/- 2.6%); assay type: toxicity, cell-based; conditions: time 28 hrs, read-out: Activity
PC-12 [10] = assay: Reversal of upregulation of HO-1 in rat PC-12 cells pretreated with U0126 for 2 hrs followed by compound addition at 10 uM for 2 to 3 hrs by Western blotting analysis; assay type: functional, cell-based; conditions: time 2-3 hrs
PC-12 [11] = assay: Antiinflammatory activity in 6-OHDA-induced cytotoxicity in rat PC-12 cells assessed as reduction of ROS production pretreated at 10 to 30 uM for 4 hrs followed by 6-OHDA addition treated for 6 hrs measured after 1 hr of H2-DCFDA addition by measuring fluorescence; assay type: functional, cell-based; conditions: dose 10-30 µM, time 11.0 hrs
PC-12 [12] = assay: Antiinflammatory activity in 6-OHDA-induced cytotoxicity in rat PC-12 cells assessed as reduction of fluorescence signal pretreated at 10 to 30 uM for 4 hrs followed by 6-OHDA addition treated for 6 hrs measured after 1 hr of H2-DCFDA addition by spectrophotometric analysis; assay type: functional, cell-based; conditions: dose 10-30 µM, time 11.0 hrs
PC-12 [13] = assay: Reversal of upregulation of HO-1 in rat PC-12 cells pretreated with SP600125 for 2 hrs followed by compound addition at 10 uM for 2 to 3 hrs by Western blotting analysis; assay type: functional, cell-based; conditions: time 2-3 hrs
[14] = molecular target: T1, Nuclear factor erythroid 2-related factor 2 (Rattus norvegicus); assay: Induction of Nrf2 nuclear translocation in rat PC12 cells assessed as change in phosphorylation of p38 MAPK level at 10 uM for 2 to 3 hrs by Western blotting analysis; assay type: cell-based; conditions: PC-12, time 2-3 hrs
PC-12 [15] = assay: Cytotoxicity in rat PC-12 cells assessed as cell viability measured at 30 uM for 24 hrs by MTT assay; assay type: functional, cell-based
PC-12 [16] = assay: Upregulation of HO-1 expression in si-RNA mediated Nrf2 knock down rat PC-12 cells measured by immunoblotting analysis; assay type: functional, cell-based
PC-12 [17] = assay: Neuroprotective activity in rat PC-12 cells assessed as upregulation of HO-1 expression measured at 10 uM after 3 to 6 hrs by immunoblotting analysis; assay type: functional, cell-based; conditions: time 3-6 hrs
[18] = molecular target: KEAP1/NRF2 (Rattus norvegicus) (UniProt O54968+P57790); assay: Inhibition of Nrf2-Keap1 protein-protein interaction in rat PC-12 cells by Western blotting analysis; assay type: cell-based
[19] = molecular target: T1, Nuclear factor erythroid 2-related factor 2 (Rattus norvegicus); assay: Induction of Nrf2 nuclear translocation in rat PC12 cells assessed as increase in phosphorylation of ERK1 at 10 uM for 2 to 3 hrs by Western blotting analysis; assay type: cell-based; conditions: PC-12, filed as activator, time 2-3 hrs
PC-12 [20] = assay: Neuroprotective activity against 6-OHDA-induced cytotoxicity in rat PC-12 cells for 4 hrs followed by exposure to 6-OHDA measured after 24 hrs by MTT assay; assay type: functional, cell-based; conditions: dose 0.1-30 µM, time 28.0 hrs
Brain = assay: Antioxidant activity in Fe2+/L-ascorbic acid induced Sprague-Dawley rat brain homogenate assessed as inhibition of lipid peroxide production measured at 100 uM after 60 mins by microplate reader method relative to control; assay type: functional, tissue-based
PC-12 [21] = assay: Neuroprotective activity in rat PC-12 cells assessed as fold increase in upregulation of HO-1 expression measured at 30 uM for 6 hrs by immunoblotting analysis; assay type: functional
[22] = molecular target: T1, Nuclear factor erythroid 2-related factor 2 (Rattus norvegicus); assay: Inhibition of Nrf2 nuclear translocation in rat PC12 cells assessed as increase in phosphorylation of p38 MAPK pretreated with SB203580 for 2 hrs followed by compound addition at 10 uM for 2 to 3 hrs by Western blotting analysis; assay type: cell-based; conditions: PC-12, time 2-3 hrs
[23] = molecular target: T1, Nuclear factor erythroid 2-related factor 2 (Rattus norvegicus); assay: Induction of Nrf2 nuclear translocation in rat PC12 cells assessed as increase in phosphorylation of ERK2 at 10 uM for 2 to 3 hrs by Western blotting analysis; assay type: cell-based; conditions: PC-12, filed as activator, time 2-3 hrs
[24] = molecular target: T1, Nuclear factor erythroid 2-related factor 2 (Rattus norvegicus); assay: Induction of Nrf2 nuclear translocation in rat PC12 cells at 10 uM for 3 hrs by Western blotting analysis; assay type: cell-based; conditions: PC-12, filed as activator
[25] = Neurotoxicity in rotenone induced at rat PC-12 cells assessed as cell viability pretreated with compound for 4 hrs followed by rotenone addition measured after 24 hrs by MTT assay; assay type: toxicity, cell-based
PC-12 [26] = assay: Antiinflammatory activity in rotenone induced cytotoxicity in rat PC-12 cells assessed as reduction of fluorescence signal pretreated at 10 to 30 uM for 4 hrs followed by rotenone addition treated for 6 hrs measured after 1 hr of H2-DCFDA addition by spectrophotometric analysis; assay type: functional, cell-based; conditions: dose 10-30 µM, time 11.0 hrs
[27] = molecular target: T1, Nuclear factor erythroid 2-related factor 2 (Rattus norvegicus); assay: Induction of Nrf2 nuclear translocation in rat PC12 cells assessed as increase in phosphorylation of Akt pretreated with LY294002 for 2 hrs followed by compound addition at 10 uM for 2 to 3 hrs by Western blotting analysis; assay type: cell-based; conditions: PC-12, time 2-3 hrs
PC-12 [28] = assay: Reversal of upregulation of HO-1 in rat PC-12 cells pretreated with LY294002 for 2 hrs followed by compound addition at 10 uM for 2 to 3 hrs by Western blotting analysis; assay type: functional, cell-based; conditions: time 2-3 hrs
[29] = molecular target: T1, Nuclear factor erythroid 2-related factor 2 (Rattus norvegicus); assay: Induction of Nrf2 nuclear translocation in rat PC12 cells assessed as increase in phosphorylation of JNK at 10 uM for 2 to 3 hrs by Western blotting analysis; assay type: cell-based; conditions: PC-12, filed as activator, time 2-3 hrs
PC-12 [30] = assay: Cytotoxicity in 6-OHDA induced rat PC-12 cells assessed as cell viability pretreated with ZnPP for 30 mins followed by compound addition at 10 uM for 4 hrs and measured after 24 hrs of […] addition by MTT assay; assay type: functional, cell-based; conditions: time 28.0 hrs
PC-12 [31] = assay: Neuroprotective activity against 6-OHDA-induced cytotoxicity in rat PC-12 cells at 10 uM for 4 hrs followed by exposure to 6-OHDA measured after 24 hrs by MTT assay; assay type: functional, cell-based; conditions: time 28.0 hrs
PC-12 [32] = assay: Cytotoxicity in rat PC-12 cells assessed as cell viability measured at 10 uM for 24 hrs by MTT assay; assay type: functional, cell-based
Monoamine oxidase = molecular target: T2, Monoamine oxidase (Mus musculus, UniProt Q8BW75+Q64133); assay: Inhibition of mouse brain mitochondrial MAO using kynuramine as substrate incubated for 15 mins measured fluorometric analysis; assay type: mitochondria, Mitochondria
T2 sequence (Q8BW75 whole entry): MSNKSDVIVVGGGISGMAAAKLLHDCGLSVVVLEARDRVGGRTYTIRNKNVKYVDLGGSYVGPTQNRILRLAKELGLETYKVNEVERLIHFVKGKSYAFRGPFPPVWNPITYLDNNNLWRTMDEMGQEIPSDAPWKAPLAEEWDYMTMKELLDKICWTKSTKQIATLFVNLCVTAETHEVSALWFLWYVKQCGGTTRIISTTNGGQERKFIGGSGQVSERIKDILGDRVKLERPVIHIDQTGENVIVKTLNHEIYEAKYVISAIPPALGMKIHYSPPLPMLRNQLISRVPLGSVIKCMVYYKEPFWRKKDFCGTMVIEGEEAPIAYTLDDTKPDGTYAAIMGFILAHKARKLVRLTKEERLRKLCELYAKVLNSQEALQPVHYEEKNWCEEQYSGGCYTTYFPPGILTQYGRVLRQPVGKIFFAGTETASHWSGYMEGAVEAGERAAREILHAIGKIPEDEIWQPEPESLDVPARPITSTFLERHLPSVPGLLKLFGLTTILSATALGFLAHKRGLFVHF
T2 sequence (Q64133 whole entry): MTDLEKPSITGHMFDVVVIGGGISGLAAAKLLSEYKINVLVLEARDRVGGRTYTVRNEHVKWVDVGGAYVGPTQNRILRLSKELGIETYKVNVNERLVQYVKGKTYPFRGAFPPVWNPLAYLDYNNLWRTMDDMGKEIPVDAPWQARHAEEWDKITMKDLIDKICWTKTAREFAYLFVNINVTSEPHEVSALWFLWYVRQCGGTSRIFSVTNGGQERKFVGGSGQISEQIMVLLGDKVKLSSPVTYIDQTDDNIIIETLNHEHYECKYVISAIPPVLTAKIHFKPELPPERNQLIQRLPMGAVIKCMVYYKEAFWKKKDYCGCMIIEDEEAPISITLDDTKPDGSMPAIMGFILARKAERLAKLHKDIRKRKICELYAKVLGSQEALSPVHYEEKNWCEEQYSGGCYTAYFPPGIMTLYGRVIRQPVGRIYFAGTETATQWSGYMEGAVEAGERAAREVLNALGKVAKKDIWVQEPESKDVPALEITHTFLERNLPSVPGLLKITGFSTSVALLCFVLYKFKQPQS

Activity [2]: inactive | Activity [4]: Active | Activity [7]: inactive | Activity [8]: inactive | Activity [14]: inactive | inhibition [18]: Active | Activity [19]: Active | inhibition [22]: Active | Activity [23]: Active | Activity [24]: Active | Activity [27]: inactive | Activity [29]: Active
Compound: COc1ccc(-c2coc3cc(O)c4c(c3c2=O)OC(C)(C)C=C4)cc1
Activity (PC-12 [1]): Dose-Dependent Effect | IC50 (PC-12 [3]): 3.9 µM | Activity (PC-12 [5]): Active | Activity (PC-12 [6]): Active | viability at 30 µM [9]: ≤ 81.8% | Activity (PC-12 [10]): Active | Activity (PC-12 [11]): Active | Activity (PC-12 [12]): Active | Activity (PC-12 [13]): Active | Activity (PC-12 [15]): inactive | Activity (PC-12 [16]): inactive | Activity (PC-12 [17]): Active | Activity (PC-12 [20]): Dose-Dependent Effect | inhibition (Brain): 28.8% | fold change (FC) (PC-12 [21]): 2 | IC50 [25]: 4.8 µM | Activity (PC-12 [26]): Active | Activity (PC-12 [28]): Active | Activity (PC-12 [30]): Active

Compound: CC1(C)Oc2c(c(O)cc3occ(-c4ccco4)c(=O)c23)CC1O (stereo unspecified)
Activity (PC-12 [6]): inactive | Activity (PC-12 [31]): Active | Activity (PC-12 [32]): Active

IC50 (Monoamine oxidase): 25.8 µM
Compound: CC1(C)C=Cc2c(cc3occ(-c4ccc(O)cc4)c(=O)c3c2O)O1 [ALPINUMISOFLAVONE]
Activity (PC-12 [15]): Active
